{
  "source": "patent US20120190752A1",
  "about": "“EXO-S-MECAMYLAMINE METHOD, USE, AND COMPOUND FOR TREATMENT” (Targacept Inc., priority 2009, published 2012)",
  "system": "subjects with major depressive disorder (MDD) who were inadequate responders to citalopram",
  "experiment": "SIS (Sheehan Irritability Scale), total and individual items, Phase 2b add-on trial",
  "assay_type": "in vivo, human",
  "set-up": "SIS Adj. Mean change / SIS total score change Adjusted Mean / SIS Anger With Others change Adjusted Mean / SIS Anger With Self change Adjusted Mean / SIS Edginess change Adjusted Mean / SIS Irritability change Adjusted Mean / SIS Moodiness change Adjusted Mean / SIS Temper change Adjusted Mean: scale not given here",
  "details": "for SIS Difference vs placebo / SIS Adj. Mean change: ITT; for SIS Difference vs placebo: Week 8 to Week 16 LOCF; for SIS Adj. Mean change: change from Week 8 (double-blind baseline) to Week 16 LOCF, add-on to citalopram",
  "experimental": "In more detail, a multi-center double-blind, randomized, placebo-controlled, parallel group, flexible dose titration study of TC-5214 as adjunctive therapy in subjects with major depressive disorder (MDD) who were inadequate responders to citalopram was conducted in centers in the US and India. The study consisted of a screening period, baseline/washout period, open-label phase, double-blind phase, and a follow-up visit. Subject participation in the study could continue for up to 16 weeks of treatment. Following a washout period of up to 28 days for other antidepressants, subjects with MDD and a MADRS total score >/=28 and a Clinical Global Impression-Severity (CGI-S) score >/=4 were enrolled on Day 1 into an open-label citalopram-only phase of the study. This phase lasted 8 weeks, with citalopram (CIT) dose increased from a once-daily dose of 20 mg (Day 1 through Week 4) to 40 mg (Week 4 through Week 8). A total of 579 subjects entered the open-label citalopram phase. At Week 8, subjects who tolerated 40 mg CIT, but whose MADRS score was reduced <50% from baseline and no lower than 17, and CGI-S≧4, were considered inadequate responders. These subjects (n=270) were randomized in a double-blind fashion to receive either placebo or TC-5214-23 as add-on therapy to continued CIT. The double-blind phase of the study also lasted 8 weeks (Week 8 to Week 16). Study drug, TC-5214-23 or placebo, was started at 2 mg daily (1 mg twice per day [BID] dosing), added on to continuing CIT (40 mg PO qd). After 2 weeks of treatment, the dose of TC-5214 could be increased to 4 mg (2 mg BID) or continued unchanged, with up-titration based upon good tolerability and inadequate therapeutic response. After a further 2 weeks, the dose of TC-5214 could be increased again to 8 mg (4 mg BID) if judged appropriate by the investigator, based upon good tolerability and inadequate therapeutic response. At any time during the double-blind phase of the study, placebo or TC-5214-23 could be reduced to the previous dose level following the emergence of unacceptable adverse events (AEs). […] At this follow-up, any signs or symptoms of relapse were evaluated. If a subject was prematurely discontinued from the study between Week 8 and Week 16 for any reason, the investigator was to make every effort to perform all evaluations as per protocol, assuming the subject had reached the end of the double-blind add-on treatment phase. These evaluations were to be made as soon as possible and within 2 weeks of discontinuation. […] There was no meaningful difference in results as a function of age, gender, site, or smoking status. [table] With regard to efficacy endpoints, the following tables present efficacy used in the ITT (Intent-to-Treat) and PP (Per Protocol) populations unless otherwise specific. The primary inference was based upon Week 16 visit using the ITT population. Change from baseline was obtained by subtracting the baseline values from the individual on-treatment values. Change from Week 16 was obtained by subtracting the Week 16 values from the individual follow-up visit (Week 18/19) values. If either the baseline or Week 16 or on-treatment or follow-up value was missing, the change from baseline or Week 16 value was also set to missing. To account for missing data, the last observation carry forward (LOCF) method was used for the ITT and PP populations. Thus, the last available on-therapy observation for a subject, including the observation at premature discontinuation, was used to estimate subsequent missing data points. For efficacy, baseline data were collected at Week 8 in the double-blind augmentation phase electronic case report form pages. For SIS, the endpoint was the change from Week 8 (double-blind baseline) to Week 16 of the SIS. Changes were analyzed using ANCOVA. Each SIS item score was also analyzed using ANCOVA. […]",
  "key": {"[1]": {"details": "ITT Population, Double Blind Week 16 LOCF, change from Week 8 (double-blind baseline)"}, "[2]": {"details": "ITT Population, Double Blind Week 18 LOCF (Follow-up)"}, "[3]": {"details": "ITT and PP populations, result in words"}, "[4]": {"details": "PP Population, Double Blind Week 16 LOCF, change from Week 8 (double-blind baseline)"}, "[5]": {"details": "PP Population, Double Blind Week 18 LOCF (Follow-up)"}},
  "data": [
    {"molecule": "CNC1(C)C2CCC(C2)C1(C)C", "note": "(stereo in doubt) [TC-5214, (S)—N,2,3,3-tetramethylnorbornan-2-amine]", "values": [
      {"measurement": "SIS total score change Adjusted Mean", "setting": "[1]", "result": "−18.21"},
      {"measurement": "SIS total score change Mean Difference between TC-5214 and Placebo", "setting": "[1]", "result": 8.76},
      {"measurement": "SIS total score change Adjusted Mean", "setting": "[2]", "result": "−0.68"},
      {"measurement": "SIS total score change Mean Difference between TC-5214 and Placebo", "setting": "[2]", "result": "−0.51"},
      {"measurement": "SIS total score change from baseline compared with placebo", "setting": "[3]", "result": "statistically significant decreases (improvements)"},
      {"measurement": "each SIS individual item change from baseline compared with placebo", "setting": "[3]", "result": "statistically significant decreases (improvements)"},
      {"measurement": "SIS Difference vs placebo", "result": "−8.54 (−11.65, −5.44)"},
      {"measurement": "SIS Difference vs placebo", "setting": "listed as TC-5214 + CIT", "result": "−8.54"},
      {"measurement": "SIS Adj. Mean change", "result": "−18.21 (1.12)"},
      {"measurement": "SIS Adj. Mean change", "setting": "listed as TC-5214 + CIT", "result": "−18.21"},
      {"measurement": "SIS total score change Adjusted Mean", "setting": "[4]", "result": "−19.96"},
      {"measurement": "SIS total score change Mean Difference between TC-5214 and Placebo", "setting": "[4]", "result": 10.04},
      {"measurement": "SIS total score change Adjusted Mean", "setting": "[5]", "result": "−0.77"},
      {"measurement": "SIS total score change Mean Difference between TC-5214 and Placebo", "setting": "[5]", "result": "−0.34"}
    ]}
  ]
}
